These results are taken from patent US20230310428A1, “EGFR INHIBITOR AND PREPARATION METHOD AND USE THEREOF” (HONGYUN BIOTECH CO., LTD., priority 2020, published 2023).

Common to all, as to test: Growth inhibitory activity of compounds on BaF3 cell lines stably transfected with kinase (MTS, 48 h)
Holding throughout (type): cell-based

In assay [1] the target is T1, various mutants of kinase EGFR (BaF3 cell lines stably transfected with kinase) (Homo sapiens, UniProt P00533).
T1 construct: other: BaF3 cells stably transfected with EGFR Δ19Del; MTS, 48 h; other: BaF3 cell line stably transfected with EGFR Δ19Del
T1 sequence (P00533 with tags, fused parts or gaps DEL746-750): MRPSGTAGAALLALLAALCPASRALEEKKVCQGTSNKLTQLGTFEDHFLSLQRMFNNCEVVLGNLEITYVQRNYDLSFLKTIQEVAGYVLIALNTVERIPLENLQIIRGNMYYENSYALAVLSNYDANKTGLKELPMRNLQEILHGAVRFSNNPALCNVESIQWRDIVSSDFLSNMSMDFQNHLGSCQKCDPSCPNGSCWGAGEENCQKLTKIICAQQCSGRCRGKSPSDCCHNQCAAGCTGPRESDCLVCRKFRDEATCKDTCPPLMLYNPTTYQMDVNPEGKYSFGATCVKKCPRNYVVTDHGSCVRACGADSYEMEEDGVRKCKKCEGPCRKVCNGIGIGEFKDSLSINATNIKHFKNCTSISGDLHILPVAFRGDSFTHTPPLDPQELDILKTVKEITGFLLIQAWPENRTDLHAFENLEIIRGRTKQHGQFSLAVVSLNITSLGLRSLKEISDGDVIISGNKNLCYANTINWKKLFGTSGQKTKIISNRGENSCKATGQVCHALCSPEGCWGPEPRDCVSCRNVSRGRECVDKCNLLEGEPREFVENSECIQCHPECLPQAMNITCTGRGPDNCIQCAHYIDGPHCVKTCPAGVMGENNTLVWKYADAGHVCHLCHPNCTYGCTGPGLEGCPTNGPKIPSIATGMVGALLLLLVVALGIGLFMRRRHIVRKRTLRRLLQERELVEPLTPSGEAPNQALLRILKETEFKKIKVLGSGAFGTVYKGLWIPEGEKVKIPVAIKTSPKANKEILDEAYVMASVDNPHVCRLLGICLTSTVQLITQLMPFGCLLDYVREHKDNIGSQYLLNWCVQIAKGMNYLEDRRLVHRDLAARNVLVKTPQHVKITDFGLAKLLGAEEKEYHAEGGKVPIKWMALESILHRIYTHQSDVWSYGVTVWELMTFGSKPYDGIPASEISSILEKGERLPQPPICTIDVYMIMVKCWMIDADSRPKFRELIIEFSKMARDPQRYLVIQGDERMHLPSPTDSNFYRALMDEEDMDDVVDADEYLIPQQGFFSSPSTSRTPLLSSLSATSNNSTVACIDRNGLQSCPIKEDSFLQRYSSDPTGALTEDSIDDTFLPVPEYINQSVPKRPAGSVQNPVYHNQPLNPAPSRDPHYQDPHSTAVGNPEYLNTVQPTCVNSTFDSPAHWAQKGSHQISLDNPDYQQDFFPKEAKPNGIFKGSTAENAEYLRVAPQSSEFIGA
The note with it: BaF3 cells stably transfected with EGFR Δ19Del, read-out: IC50, growth inhibition, Δ19Del. In short, it runs like this:
(§1)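 Growth is measured by MTS reduction (OD 490 nm) after 48 h compound exposure at up to 10 µM in 8 steps of 1/3. Inhibition is calculated against a 0.1% DMSO control and cell-free blank, and IC50 is derived from it.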

Assay [2] has as its target T2, various mutants of kinase EGFR (BaF3 cell lines stably transfected with kinase) (Homo sapiens, UniProt P00533, C797S/L858R/T790M).
T2 construct: expressed in transfected cells; host or cells: BaF3
The following applies: BaF3 cells stably transfected with EGFR L858R/T790M/C797S, read-out: IC50, growth inhibition, L858R/T790M/C797S. In short, it runs like this: as §1

The target of assay [3] is T3, various mutants of kinase EGFR (BaF3 cell lines stably transfected with kinase) (Homo sapiens, UniProt P00533, L858R).
T3 construct: expressed in transfected cells; host or cells: BaF3
T3 sequence (P00533 25-1210 L858R): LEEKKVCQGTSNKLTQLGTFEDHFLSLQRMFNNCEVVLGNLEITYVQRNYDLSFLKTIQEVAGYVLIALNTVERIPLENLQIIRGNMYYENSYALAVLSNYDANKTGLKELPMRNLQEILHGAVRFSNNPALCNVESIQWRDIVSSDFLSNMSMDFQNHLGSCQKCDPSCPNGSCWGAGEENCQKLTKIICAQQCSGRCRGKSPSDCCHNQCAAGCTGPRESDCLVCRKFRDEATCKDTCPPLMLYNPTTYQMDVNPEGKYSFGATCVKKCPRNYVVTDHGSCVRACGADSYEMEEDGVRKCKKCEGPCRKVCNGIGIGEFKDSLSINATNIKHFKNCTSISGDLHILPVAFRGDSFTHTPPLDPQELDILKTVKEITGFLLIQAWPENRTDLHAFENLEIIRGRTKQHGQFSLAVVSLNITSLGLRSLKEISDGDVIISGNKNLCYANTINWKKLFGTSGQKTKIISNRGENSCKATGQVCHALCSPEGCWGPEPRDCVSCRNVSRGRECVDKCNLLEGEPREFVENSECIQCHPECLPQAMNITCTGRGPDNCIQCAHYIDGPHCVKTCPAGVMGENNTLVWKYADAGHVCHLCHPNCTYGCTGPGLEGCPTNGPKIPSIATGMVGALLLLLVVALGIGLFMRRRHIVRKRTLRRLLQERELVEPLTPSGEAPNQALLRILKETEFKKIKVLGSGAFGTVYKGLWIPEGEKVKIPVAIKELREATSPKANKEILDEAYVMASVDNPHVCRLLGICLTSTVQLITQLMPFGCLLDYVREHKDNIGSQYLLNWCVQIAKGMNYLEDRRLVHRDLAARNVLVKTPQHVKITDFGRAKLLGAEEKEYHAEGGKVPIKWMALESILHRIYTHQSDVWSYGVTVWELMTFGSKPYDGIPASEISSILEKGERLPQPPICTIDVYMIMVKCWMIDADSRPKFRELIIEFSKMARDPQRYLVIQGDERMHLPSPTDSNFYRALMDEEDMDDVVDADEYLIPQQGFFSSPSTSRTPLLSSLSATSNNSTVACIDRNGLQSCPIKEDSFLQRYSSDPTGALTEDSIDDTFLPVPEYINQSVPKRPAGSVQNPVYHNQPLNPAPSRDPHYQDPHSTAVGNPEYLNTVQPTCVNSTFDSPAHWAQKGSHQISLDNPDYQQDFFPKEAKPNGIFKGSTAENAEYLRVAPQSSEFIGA
The note with it: BaF3 cells stably transfected with EGFR L858R, read-out: IC50, growth inhibition, L858R. An outline of the steps: as §1

In assay [4] the target is T4, various mutants of kinase EGFR (BaF3 cell lines stably transfected with kinase) (Homo sapiens, UniProt P00533, L858R/T790M).
T4 construct: expressed in transfected cells; host or cells: BaF3
T4 sequence (P00533 25-1210 T790M/L858R): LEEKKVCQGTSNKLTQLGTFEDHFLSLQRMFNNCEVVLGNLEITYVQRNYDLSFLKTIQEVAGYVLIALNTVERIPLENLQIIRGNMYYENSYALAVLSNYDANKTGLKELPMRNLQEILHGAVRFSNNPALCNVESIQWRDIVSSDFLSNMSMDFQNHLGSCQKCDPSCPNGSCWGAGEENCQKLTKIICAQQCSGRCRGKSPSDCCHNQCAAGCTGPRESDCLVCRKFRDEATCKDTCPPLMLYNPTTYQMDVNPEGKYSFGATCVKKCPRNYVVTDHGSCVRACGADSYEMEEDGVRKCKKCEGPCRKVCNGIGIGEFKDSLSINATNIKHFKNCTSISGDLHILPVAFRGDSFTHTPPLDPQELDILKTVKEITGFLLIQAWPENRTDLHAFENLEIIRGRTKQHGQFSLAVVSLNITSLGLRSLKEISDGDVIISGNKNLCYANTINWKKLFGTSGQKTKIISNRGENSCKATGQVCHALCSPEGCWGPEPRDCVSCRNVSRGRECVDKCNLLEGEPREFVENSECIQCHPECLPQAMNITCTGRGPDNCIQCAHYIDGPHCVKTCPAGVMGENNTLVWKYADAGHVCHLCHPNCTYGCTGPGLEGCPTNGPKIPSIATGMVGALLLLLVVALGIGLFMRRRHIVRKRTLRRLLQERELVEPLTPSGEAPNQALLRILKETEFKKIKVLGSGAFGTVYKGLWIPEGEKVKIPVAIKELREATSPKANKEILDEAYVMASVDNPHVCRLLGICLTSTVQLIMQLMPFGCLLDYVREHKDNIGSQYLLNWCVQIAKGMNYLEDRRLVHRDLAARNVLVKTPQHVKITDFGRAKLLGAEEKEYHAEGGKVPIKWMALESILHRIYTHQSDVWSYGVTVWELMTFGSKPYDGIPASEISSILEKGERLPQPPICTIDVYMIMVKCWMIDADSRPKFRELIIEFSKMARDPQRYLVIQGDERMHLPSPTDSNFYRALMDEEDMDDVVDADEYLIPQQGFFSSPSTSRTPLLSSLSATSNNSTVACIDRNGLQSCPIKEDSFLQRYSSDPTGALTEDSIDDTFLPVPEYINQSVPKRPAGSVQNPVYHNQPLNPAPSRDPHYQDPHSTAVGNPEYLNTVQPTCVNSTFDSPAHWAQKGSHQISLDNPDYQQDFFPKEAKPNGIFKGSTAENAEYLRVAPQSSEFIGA
The following applies: BaF3 cells stably transfected with EGFR L858R/T790M, read-out: IC50, growth inhibition, L858R/T790M. An outline of the steps: as §1

The target in assay [5] is T5, various mutants of kinase EGFR (BaF3 cell lines stably transfected with kinase) (Homo sapiens, UniProt P00533, T790M/C797S, form not given).
T5 construct: other: BaF3 cells stably transfected with EGFR Δ19Del/T790M/C797S; MTS, 48; other: BaF3 cell line stably transfected with EGFR Δ19Del/T790M/C7
The note with it: BaF3 cells stably transfected with EGFR Δ19Del/T790M/C797S, read-out: IC50, growth inhibition, Δ19Del/T790M/C797S. An outline of the steps:
as §1

The target of assay [6] is T6, various mutants of kinase EGFR (BaF3 cell lines stably transfected with kinase) (Homo sapiens, UniProt P00533, T790M, form not given).
T6 construct: other: BaF3 cells stably transfected with EGFR Δ19Del/T790M; MTS, 48 h; other: BaF3 cell line stably transfected with EGFR Δ19Del/T790M; MTS, 48
T6 sequence (P00533 with tags, fused parts or gaps DEL746-750/T790M, form open): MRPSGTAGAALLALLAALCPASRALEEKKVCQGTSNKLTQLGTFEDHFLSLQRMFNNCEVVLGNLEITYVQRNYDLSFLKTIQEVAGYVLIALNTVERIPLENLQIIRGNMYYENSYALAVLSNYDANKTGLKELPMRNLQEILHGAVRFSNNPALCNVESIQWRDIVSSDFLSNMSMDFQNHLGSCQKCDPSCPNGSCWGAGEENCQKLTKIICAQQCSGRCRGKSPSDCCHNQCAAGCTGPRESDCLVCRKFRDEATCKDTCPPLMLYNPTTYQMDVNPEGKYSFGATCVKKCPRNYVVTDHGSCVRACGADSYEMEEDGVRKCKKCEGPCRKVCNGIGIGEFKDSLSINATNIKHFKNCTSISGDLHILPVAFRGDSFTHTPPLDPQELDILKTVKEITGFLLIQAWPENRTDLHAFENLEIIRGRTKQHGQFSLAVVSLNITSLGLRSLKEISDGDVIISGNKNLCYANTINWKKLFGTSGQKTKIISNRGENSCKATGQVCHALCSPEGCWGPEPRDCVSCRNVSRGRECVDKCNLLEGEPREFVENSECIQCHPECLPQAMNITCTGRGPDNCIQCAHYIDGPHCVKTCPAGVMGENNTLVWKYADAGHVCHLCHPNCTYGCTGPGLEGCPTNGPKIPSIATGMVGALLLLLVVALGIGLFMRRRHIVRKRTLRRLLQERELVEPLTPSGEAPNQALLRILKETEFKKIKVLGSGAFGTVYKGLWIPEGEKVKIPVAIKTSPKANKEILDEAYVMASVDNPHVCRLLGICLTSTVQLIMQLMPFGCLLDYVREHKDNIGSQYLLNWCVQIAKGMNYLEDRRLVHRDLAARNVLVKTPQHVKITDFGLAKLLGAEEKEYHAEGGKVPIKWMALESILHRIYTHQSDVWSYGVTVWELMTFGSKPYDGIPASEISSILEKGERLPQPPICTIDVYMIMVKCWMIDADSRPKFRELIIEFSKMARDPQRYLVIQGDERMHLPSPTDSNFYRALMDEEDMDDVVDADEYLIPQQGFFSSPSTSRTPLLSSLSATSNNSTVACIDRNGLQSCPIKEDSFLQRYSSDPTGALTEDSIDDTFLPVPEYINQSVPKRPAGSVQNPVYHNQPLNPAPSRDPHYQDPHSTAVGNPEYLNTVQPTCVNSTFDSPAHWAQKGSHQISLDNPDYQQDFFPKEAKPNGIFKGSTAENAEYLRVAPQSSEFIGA
The note with it: BaF3 cells stably transfected with EGFR Δ19Del/T790M, read-out: IC50, growth inhibition, Δ19Del/T790M. An outline of the steps: as §1

The structures appear in SMILES notation. Bounds are passed on as bounds.

Take `COc1cc(N2CCN(C)CC2)c(C)cc1Nc1ncc(Cl)c(Nc2ccc3nccnc3c2N(C)S(C)(=O)=O)n1` [Compound I-171]: the IC50 in assay [1] was 50 to 500 nM; in assay [2], no more than 50 nM; in assay [3], no more than 50 nM; in assay [4] it was no more than 50 nM; in assay [5], no more than 50 nM; in assay [6] it was no more than 50 nM.
Take `CCc1cc(Nc2ncc(Cl)c(Nc3ccc4nccnc4c3N(C)S(C)(=O)=O)n2)c(OC)cc1N1CCN(C)CC1` [Compound I-172]: the IC50 in assay [1], in assay [2], in assay [3], in assay [4], in assay [5] and in assay [6] was no more than 50 nM each time.
Consider `COc1cc(N2CCC(N(C)C)C2)c(C)cc1Nc1ncc(Cl)c(Nc2ccc3nccnc3c2N(C)S(C)(=O)=O)n1` (stereo not drawn) [Compound I-173], for which the IC50 in assay [1], in assay [2], in assay [3], in assay [4], in assay [5] and in assay [6] was no more than 50 nM each time.
Take `CCc1cc(Nc2ncc(Cl)c(Nc3ccc4nccnc4c3N(C)S(C)(=O)=O)n2)c(OC)cc1N1CCC(N(C)C)C1` (stereo not drawn) [Compound I-174]: the IC50 in assay [1], in assay [2], in assay [3], in assay [4], in assay [5] and in assay [6] was no more than 50 nM in each case.
As for `COc1nc(N2CCC(N3CCN(C)CC3)CC2)ccc1Nc1ncc(F)c(Nc2ccc3nccnc3c2N(C)S(C)(=O)=O)n1` [Compound I-175], the IC50 is 500 to 2500 nM in assay [1]; 500 to 2500 nM in assay [2]; 500 to 2500 nM in assay [3]; 500 to 2500 nM in assay [4]; 50 to 500 nM in assay [5]; 500 to 2500 nM in assay [6].
Regarding `CCc1cc(Nc2ncc(F)c(Nc3ccc4nccnc4c3N(C)S(C)(=O)=O)n2)c(OC)nc1N1CCC(N2CCN(C)CC2)CC1` [Compound I-177], the IC50 in assay [1], in assay [2], in assay [3], in assay [4], in assay [5] and in assay [6] was no more than 50 nM in each case.
Regarding `CN1CCN(C2CCN(c3ccc(Nc4ncc(F)c(Nc5ccc6nccnc6c5N(C)S(C)(=O)=O)n4)c(OC(F)(F)F)c3)CC2)CC1` [Compound I-178], the IC50 was in the range of 50 to 500 nM in assay [1]; 500 to 2500 nM in assay [2]; 50 to 500 nM in assay [3]; 500 to 2500 nM in assay [4]; 50 to 500 nM in assay [5]; 500 to 2500 nM in assay [6].
Consider `CCc1cc(Nc2ncc(F)c(Nc3ccc4nccnc4c3N(C)S(C)(=O)=O)n2)c(OC(F)(F)F)cc1N1CCC(N2CCN(C)CC2)CC1` [Compound I-179], for which the IC50 in assay [1] was 50 to 500 nM; in assay [2], 50 to 500 nM; in assay [3] it was 50 to 500 nM; in assay [4] it was 50 to 500 nM; in assay [5] it was no more than 50 nM; in assay [6], 50 to 500 nM.
On to `C=Cc1cc(Nc2ncc(F)c(Nc3ccc4nccnc4c3N(C)S(C)(=O)=O)n2)c(OC(F)(F)F)cc1N1CCC(N2CCN(C)CC2)CC1` [Compound I-180], for which the IC50 in assay [1] was no more than 50 nM; in assay [2], 50 to 500 nM; in assay [3], no more than 50 nM; in assay [4], no more than 50 nM; in assay [5] it was no more than 50 nM; in assay [6], 50 to 500 nM.
`COc1cc(N2CCC(N3CCN(C)CC3)CC2)c(CC2CC2)cc1Nc1ncc(F)c(Nc2ccc3nccnc3c2N(C)S(C)(=O)=O)n1` [Compound I-181]: the IC50 in assay [1] was no more than 50 nM; in assay [2], 50 to 500 nM; in assay [3], no more than 50 nM; in assay [4], no more than 50 nM; in assay [5], no more than 50 nM; in assay [6], 50 to 500 nM.
For `COc1cc(N2CCC(N3CCN(C)CC3)CC2)c(Cc2ccccc2)cc1Nc1ncc(F)c(Nc2ccc3nccnc3c2N(C)S(C)(=O)=O)n1` [Compound I-182], the IC50 in assay [1], in assay [2], in assay [3], in assay [4], in assay [5] and in assay [6] was 500 to 2500 nM each time.
With `COc1cc(N2CCC(N(C)C)CC2)c(C)cc1Nc1ncc(F)c(Nc2ccc3nccnc3c2N(C)S(C)(=O)=O)n1` [Compound I-183], the IC50 in assay [1] is no more than 50 nM; in assay [2], no more than 50 nM; in assay [3], no more than 50 nM; in assay [4], no more than 50 nM; in assay [5], no more than 50 nM; in assay [6] it was 50 to 500 nM.
Consider `CCc1cc(Nc2ncc(F)c(Nc3ccc4nccnc4c3N(C)S(C)(=O)=O)n2)c(OC)cc1N1CCC(N(C)C)CC1` [Compound I-184], for which the IC50 was no more than 50 nM in assay [1]; no more than 50 nM in assay [2]; no more than 50 nM in assay [3]; no more than 50 nM in assay [4]; no more than 50 nM in assay [5]; 50 to 500 nM in assay [6].
Regarding `COc1cc(N2CCN(C)CC2)c(C)cc1Nc1ncc(F)c(Nc2ccc3nccnc3c2N(C)S(C)(=O)=O)n1` [Compound I-185], the IC50 in assay [1] is 50 to 500 nM; in assay [2], 50 to 500 nM; in assay [3] it was no more than 50 nM; in assay [4], 50 to 500 nM; in assay [5] it was no more than 50 nM; in assay [6] it was 50 to 500 nM.
Consider `CCc1cc(Nc2ncc(F)c(Nc3ccc4nccnc4c3N(C)S(C)(=O)=O)n2)c(OC)cc1N1CCN(C)CC1` [Compound I-186], for which the IC50 in assay [1] was 50 to 500 nM; in assay [2] it was no more than 50 nM; in assay [3] it was no more than 50 nM; in assay [4], 50 to 500 nM; in assay [5], no more than 50 nM; in assay [6] it was 50 to 500 nM.
Regarding `COc1cc(N2CCC(N(C)C)C2)c(C)cc1Nc1ncc(F)c(Nc2ccc3nccnc3c2N(C)S(C)(=O)=O)n1` (stereo not drawn) [Compound I-187], the IC50 in assay [1] was no more than 50 nM; in assay [2], 50 to 500 nM; in assay [3], 50 to 500 nM; in assay [4], 50 to 500 nM; in assay [5], 50 to 500 nM; in assay [6], 50 to 500 nM.
On to `CCc1cc(Nc2ncc(F)c(Nc3ccc4nccnc4c3N(C)S(C)(=O)=O)n2)c(OC)cc1N1CCC(N(C)C)C1` (stereo not drawn) [Compound I-188], for which the IC50 is 50 to 500 nM in assay [1]; 50 to 500 nM in assay [2]; no more than 50 nM in assay [3]; 50 to 500 nM in assay [4]; no more than 50 nM in assay [5]; no more than 50 nM in assay [6].
On to `CCc1cc(Nc2ncc([N+](=O)[O-])c(Nc3ccc4nccnc4c3N(C)S(C)(=O)=O)n2)c(OC)nc1N1CCC(N2CCN(C)CC2)CC1` [Compound I-190], for which the IC50 in assay [1] is 50 to 500 nM; in assay [2], 50 to 500 nM; in assay [3] it was 50 to 500 nM; in assay [4], no more than 50 nM; in assay [5], no more than 50 nM; in assay [6] it was no more than 50 nM.
For `COc1cc(N2CCC(N3CCN(C)CC3)CC2)c(CC2CC2)cc1Nc1ncc([N+](=O)[O-])c(Nc2ccc3nccnc3c2N(C)S(C)(=O)=O)n1` [Compound I-191], the IC50 in assay [1] was 50 to 500 nM; in assay [2], 50 to 500 nM; in assay [3], 50 to 500 nM; in assay [4], 50 to 500 nM; in assay [5], no more than 50 nM; in assay [6], 50 to 500 nM.
In the case of `COc1cc(N2CCC(N(C)C)CC2)c(C)cc1Nc1ncc([N+](=O)[O-])c(Nc2ccc3nccnc3c2N(C)S(C)(=O)=O)n1` [Compound I-192], the IC50 in assay [1] was no more than 50 nM; in assay [2], no more than 50 nM; in assay [3], 50 to 500 nM; in assay [4], no more than 50 nM; in assay [5] it was no more than 50 nM; in assay [6], no more than 50 nM.
For `CCc1cc(Nc2ncc([N+](=O)[O-])c(Nc3ccc4nccnc4c3N(C)S(C)(=O)=O)n2)c(OC)cc1N1CCC(N(C)C)CC1` [Compound I-193], the IC50 in assay [1], in assay [2], in assay [3], in assay [4], in assay [5] and in assay [6] was no more than 50 nM in each case.
For `COc1cc(N2CCN(C)CC2)c(C)cc1Nc1ncc([N+](=O)[O-])c(Nc2ccc3nccnc3c2N(C)S(C)(=O)=O)n1` [Compound I-194], the IC50 in assay [1] was 50 to 500 nM; in assay [2], 50 to 500 nM; in assay [3], 50 to 500 nM; in assay [4], 50 to 500 nM; in assay [5], no more than 50 nM; in assay [6] it was 50 to 500 nM.
